Source: the Kinase Knowledgebase extract (Sharma et al. 2016)

These compounds were tested against PIK3CG (human) (UniProt P48736) (assay: Inhibition of PIK3CG Kinase Activity).
Sequence of PIK3CG (human) (P48736 whole entry, looked up): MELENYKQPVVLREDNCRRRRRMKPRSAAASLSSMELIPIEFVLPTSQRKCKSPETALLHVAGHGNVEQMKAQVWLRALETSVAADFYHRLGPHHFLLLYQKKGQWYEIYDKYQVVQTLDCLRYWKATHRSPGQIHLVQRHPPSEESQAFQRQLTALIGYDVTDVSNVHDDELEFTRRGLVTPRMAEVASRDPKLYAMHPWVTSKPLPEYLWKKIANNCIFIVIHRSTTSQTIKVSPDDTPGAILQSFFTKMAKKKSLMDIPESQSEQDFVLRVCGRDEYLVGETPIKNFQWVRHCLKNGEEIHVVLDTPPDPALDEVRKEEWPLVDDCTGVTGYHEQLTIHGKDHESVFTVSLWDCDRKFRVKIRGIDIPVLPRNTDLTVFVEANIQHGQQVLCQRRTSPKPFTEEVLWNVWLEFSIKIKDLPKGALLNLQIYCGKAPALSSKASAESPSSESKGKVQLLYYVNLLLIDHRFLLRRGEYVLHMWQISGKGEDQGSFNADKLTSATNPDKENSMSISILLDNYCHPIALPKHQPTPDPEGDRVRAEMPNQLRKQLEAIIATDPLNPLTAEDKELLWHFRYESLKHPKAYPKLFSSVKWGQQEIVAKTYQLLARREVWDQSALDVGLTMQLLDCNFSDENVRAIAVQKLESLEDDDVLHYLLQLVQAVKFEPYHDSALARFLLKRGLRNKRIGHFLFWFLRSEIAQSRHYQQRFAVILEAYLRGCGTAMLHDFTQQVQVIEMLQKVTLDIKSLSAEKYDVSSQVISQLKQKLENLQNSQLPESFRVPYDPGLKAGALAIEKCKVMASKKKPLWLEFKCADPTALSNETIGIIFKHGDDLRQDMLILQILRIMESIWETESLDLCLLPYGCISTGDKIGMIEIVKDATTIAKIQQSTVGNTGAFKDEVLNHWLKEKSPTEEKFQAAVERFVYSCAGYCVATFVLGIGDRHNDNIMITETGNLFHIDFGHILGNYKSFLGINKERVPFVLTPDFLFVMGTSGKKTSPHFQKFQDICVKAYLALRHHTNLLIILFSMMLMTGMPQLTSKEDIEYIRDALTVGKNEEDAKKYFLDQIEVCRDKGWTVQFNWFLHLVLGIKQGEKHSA
`Cc1nc[nH]c1-c1cccc(CNC(=O)Nc2nc3c(s2)-c2c(cnn2-c2ccccc2Cl)C3)c1` was tested, and the IC50 was < 800 nM. `CN(C)C(=O)CNC(=O)Nc1nc2c(s1)-c1c(cnn1-c1ccccc1Cl)C2` was tested, and the IC50 was < 800 nM. In the case of `O=C(NCCc1cccnc1)Nc1nc2c(s1)-c1c(cnn1-c1ccccc1Cl)C2`, the IC50 is reported as < 800 nM. `O=C(NCCN1CCOCC1)Nc1nc2c(s1)-c1c(cnn1-c1ccccc1Br)C2` was tested, and the IC50 was < 800 nM. With `CCOC(=O)Cn1nc(CCNC(=O)Nc2nc3c(s2)-c2c(cnn2-c2ccccc2C(F)(F)F)C3)cc1N` the IC50 was < 800 nM. With `O=C1CC[C@H](NC(=O)Nc2nc3c(s2)-c2c(cnn2-c2ccccc2Cl)C3)CN1` the IC50 was < 800 nM. For `Cn1nc(CNC(=O)Nc2nc3c(s2)-c2c(cnn2-c2ccccc2C(F)(F)F)C3)cc1O`, the IC50 was < 800 nM. In the case of `CC(C)c1nnc(CCNC(=O)Nc2nc3c(s2)-c2c(cnn2-c2ccccc2C(F)(F)F)C3)o1`, the IC50 is reported as < 800 nM. With `CN(C)C(=O)CNC(=O)Nc1nc2c(s1)-c1c(cnn1-c1ccccc1C(F)(F)F)C2` the IC50 was < 800 nM. For `CC(C)c1nnc(CCNC(=O)Nc2nc3c(s2)-c2c(cnn2-c2ccccc2Cl)C3)o1`, the IC50 was < 800 nM. With `CC1(C)NC(=O)N(Cc2ccc(CNC(=O)Nc3nc4c(s3)-c3c(cnn3-c3ccccc3Cl)C4)cc2)C1=O` the IC50 was < 800 nM. `CN(C(=O)OC(C)(C)C)C1CCN(C(=O)Nc2nc3c(s2)-c2c(cnn2-c2ccccc2Cl)C3)C1` (stereo unspecified) was tested, and the IC50 was < 800 nM. `O=C(NCc1nccs1)Nc1nc2c(s1)-c1c(cnn1-c1ccccc1C(F)(F)F)C2` was tested, and the IC50 was < 800 nM. With `CC(C)(C)OC(=O)CCNC(=O)Nc1nc2c(s1)-c1c(cnn1-c1cc(Cl)ccc1Cl)C2` the IC50 was < 800 nM. With `Nc1cc(CCNC(=O)Nc2nc3c(s2)-c2c(cnn2-c2ccccc2C(F)(F)F)C3)nn1C1CCN(Cc2ccccc2)CC1` the IC50 was < 800 nM. `CC(C)CNC(=O)Nc1nc2c(s1)-c1c(cnn1-c1ccccc1Cl)C2` was tested, and the IC50 was < 800 nM. In the case of `CC(C)(C)OC(=O)CCNC(=O)Nc1nc2c(s1)-c1c(cnn1-c1ccccc1C(F)(F)F)C2`, the IC50 is reported as < 800 nM. `CNC(=O)c1ccc(-n2ncc3c2-c2sc(NC(=O)NCc4cc(C5CC5)n[nH]4)nc2C3)c(C(F)(F)F)c1` was tested, and the IC50 was < 800 nM. With `CN1CCC(O)C2(CCCN(C(=O)Nc3nc4c(s3)-c3c(cnn3-c3ccccc3Cl)C4)C2)C1` (stereo unspecified) the IC50 was < 800 nM. `CC(C)(C)OC(=O)NCc1cccc(CNC(=O)Nc2nc3c(s2)-c2c(cnn2-c2ccccc2Cl)C3)c1` was tested, and the IC50 was < 800 nM. `Cn1ccc(CNC(=O)Nc2nc3c(s2)-c2c(cnn2-c2ccccc2C(F)(F)F)C3)n1` was tested, and the IC50 was < 800 nM. `O=C(O)CCCNC(=O)Nc1nc2c(s1)-c1c(cnn1-c1ccccc1C(F)(F)F)C2` was tested, and the IC50 was < 800 nM. With `CCn1nc(CNC(=O)Nc2nc3c(s2)-c2c(cnn2-c2ccccc2C(F)(F)F)C3)cc1N` the IC50 was < 800 nM. In the case of `Nc1cc(CCNC(=O)Nc2nc3c(s2)-c2c(cnn2-c2ccccc2C(F)(F)F)C3)nn1C1CCCCC1`, the IC50 is reported as < 800 nM. With `CC(C)CCNC(=O)Nc1nc2c(s1)-c1c(cnn1-c1ccccc1Cl)C2` the IC50 was < 800 nM. `Cc1onc(-c2ccccc2)c1CNC(=O)Nc1nc2c(s1)-c1c(cnn1-c1ccccc1C(F)(F)F)C2` was tested, and the IC50 was < 800 nM. `Nc1cc(CCNC(=O)Nc2nc3c(s2)-c2c(cnn2-c2ccccc2C(F)(F)F)C3)nn1CCO` was tested, and the IC50 was < 800 nM. With `CC(C)(C)OC(=O)N1CCC[C@H]1CNC(=O)Nc1nc2c(s1)-c1c(cnn1-c1ccccc1Cl)C2` the IC50 was < 800 nM. In the case of `O=C(NCc1cc(C2CC2)n[nH]1)Nc1nc2c(s1)-c1c(cnn1-c1ccccc1Br)C2`, the IC50 is reported as < 800 nM. For `C=CCn1cnc(CCNC(=O)Nc2nc3c(s2)-c2c(cnn2-c2ccccc2C(F)(F)F)C3)c1`, the IC50 was < 800 nM. For `CN(C)C(=O)Nc1nc2c(s1)-c1c(cnn1-c1ccccc1C(F)(F)F)C2`, the IC50 was < 800 nM. In the case of `CNC(=O)Nc1nc2c(s1)-c1c(cnn1-c1ccccc1C(F)(F)F)C2`, the IC50 is reported as < 800 nM. For `CCCNC(=O)Nc1nc2c(s1)-c1c(cnn1-c1ccccc1Br)C2`, the IC50 was < 800 nM. With `CC(C)n1nc(CCNC(=O)Nc2nc3c(s2)-c2c(cnn2-c2ccccc2C(F)(F)F)C3)cc1N` the IC50 was < 800 nM. In the case of `CCOC(=O)CNC(=O)Nc1nc2c(s1)-c1c(cnn1-c1ccccc1C(F)(F)F)C2`, the IC50 is reported as < 800 nM. For `Cn1nc(CNC(=O)Nc2nc3c(s2)-c2c(cnn2-c2ccccc2C(F)(F)F)C3)cc1N`, the IC50 was < 800 nM.
